# Laboratory results published in US20050197350A1, “Novel quinoline, tetrahydroquinazoline, and pyrimidine derivatives and methods of treatment related to the use thereof” (TAISHO PHARMACEUTICAL CO., LTD., priority 2003, published 2005).
# Tested on: MCH receptors
# Test: MCH receptor activity class (method not given)
# Conditions: class by percent of control at 10^−7 M or IC50
row,SMILES,class
1,"Cc1cnc(N[C@H]2CC[C@@H](NC(=O)c3cccnc3Oc3cccc(Br)c3)CC2)nc1N(C)C [compound 2894, 2-(3-bromophenoxy)-N-(cis-4-{[4-(dimethylamino)-5-methylpyrimidin-2-yl]amino}cyclohexyl)nicotinamide]",1 (Class 1: The value of percent of control at 10^−7 M was less than 40% or the value of IC50 was less than 50 nM.)
2,Cc1cnc(N[C@H]2CC[C@@H](NC(=O)c3cccnc3Oc3cccc(C(F)(F)F)c3)CC2)nc1N(C)C [compound 2895],1 (Class 1: The value of percent of control at 10^−7 M was less than 40% or the value of IC50 was less than 50 nM.)
3,"Cc1cnc(N[C@H]2CC[C@@H](NC(=O)c3cccc(C(F)(F)F)c3)CC2)nc1N(C)C [compound 2896, N-(cis-4-{[4-(dimethylamino)-5-methylpyrimidin-2-yl]amino}cyclohexyl)-3-(trifluoromethyl)benzamide]",1 (Class 1: The value of percent of control at 10^−7 M was less than 40% or the value of IC50 was less than 50 nM.)
4,"Cc1cnc(N[C@H]2CC[C@@H](NC(=O)c3cccc(F)c3)CC2)nc1N(C)C [compound 2897, N-(cis-4-{[4-(dimethylamino)-5-methylpyrimidin-2-yl]amino}cyclohexyl)-3-fluorobenzamide]",1 (Class 1: The value of percent of control at 10^−7 M was less than 40% or the value of IC50 was less than 50 nM.)
5,"Cc1cnc(N[C@H]2CC[C@@H](NC(=O)c3cccc(Br)c3)CC2)nc1N(C)C [compound 2898, 3-bromo-N-(cis-4-{[4-(dimethylamino)-5-methylpyrimidin-2-yl]amino}cyclohexyl)benzamide]",1 (Class 1: The value of percent of control at 10^−7 M was less than 40% or the value of IC50 was less than 50 nM.)
6,"Cc1cnc(N[C@H]2CC[C@@H](NC(=O)c3ccc(F)cc3)CC2)nc1N(C)C [compound 2899, N-(cis-4-{[4-(dimethylamino)-5-methylpyrimidin-2-yl]amino}cyclohexyl)-4-fluorobenzamide]",1 (Class 1: The value of percent of control at 10^−7 M was less than 40% or the value of IC50 was less than 50 nM.)
7,"COc1cc(OC)cc(C(=O)N[C@H]2CC[C@@H](Nc3ncc(C)c(N(C)C)n3)CC2)c1 [compound 2900, N-(cis-4-{[4-(dimethylamino)-5-methylpyrimidin-2-yl]amino}cyclohexyl)-3,5-dimethoxybenzamide]",1 (Class 1: The value of percent of control at 10^−7 M was less than 40% or the value of IC50 was less than 50 nM.)
8,"Cc1cnc(N[C@H]2CC[C@@H](NC(=O)c3ccc(F)cc3F)CC2)nc1N(C)C [compound 2901, N-(cis-4-{[4-(dimethylamino)-5-methylpyrimidin-2-yl]amino}cyclohexyl)-2,4-difluorobenzamide]",1 (Class 1: The value of percent of control at 10^−7 M was less than 40% or the value of IC50 was less than 50 nM.)
9,"Cc1cnc(N[C@H]2CC[C@@H](NC(=O)c3cc(F)ccc3F)CC2)nc1N(C)C [compound 2902, N-(cis-4-{[4-(dimethylamino)-5-methylpyrimidin-2-yl]amino}cyclohexyl)-2,5-difluorobenzamide]",1 (Class 1: The value of percent of control at 10^−7 M was less than 40% or the value of IC50 was less than 50 nM.)
10,"Cc1cnc(N[C@H]2CC[C@@H](NC(=O)c3ccc(F)c(F)c3F)CC2)nc1N(C)C [compound 2903, N-(cis-4-{[4-(dimethylamino)-5-methylpyrimidin-2-yl]amino}cyclohexyl)-2,3,4-trifluorobenzamide]",1 (Class 1: The value of percent of control at 10^−7 M was less than 40% or the value of IC50 was less than 50 nM.)
11,"Cc1cnc(N[C@H]2CC[C@@H](NC(=O)c3ccccc3)CC2)nc1N(C)C [compound 2904, N-(cis-4-{[4-(dimethylamino)-5-methylpyrimidin-2-yl]amino}cyclohexyl)benzamide]",2 (Class 2: The value of percent of control at 10^−7 M was from 40% to 60% or the value of IC′50 was from 50 nM to 200 nM.)
12,Cc1cnc(N[C@H]2CC[C@@H](NC(=O)c3ccc(C(C)(C)C)cc3)CC2)nc1N(C)C [compound 2905],1 (Class 1: The value of percent of control at 10^−7 M was less than 40% or the value of IC50 was less than 50 nM.)
13,"Cc1cnc(N[C@H]2CC[C@@H](NC(=O)c3ccc(Cl)cc3)CC2)nc1N(C)C [compound 2907, 4-chloro-N-(cis-4-{[4-(dimethylamino)-5-methylpyrimidin-2-yl]amino}cyclohexyl)benzamide]",1 (Class 1: The value of percent of control at 10^−7 M was less than 40% or the value of IC50 was less than 50 nM.)
14,"Cc1cnc(N[C@H]2CC[C@@H](NC(=O)c3cccc(C#N)c3)CC2)nc1N(C)C [compound 2908, 3-cyano-N-(cis-4-{[4-(dimethylamino)-5-methylpyrimidin-2-yl]amino}cyclohexyl)benzamide]",1 (Class 1: The value of percent of control at 10^−7 M was less than 40% or the value of IC50 was less than 50 nM.)
15,"Cc1cnc(N[C@H]2CC[C@@H](NC(=O)c3ccc(C#N)cc3)CC2)nc1N(C)C [compound 2909, 4-cyano-N-(cis-4-{[4-(dimethylamino)-5-methylpyrimidin-2-yl]amino}cyclohexyl)benzamide]",1 (Class 1: The value of percent of control at 10^−7 M was less than 40% or the value of IC50 was less than 50 nM.)
16,COc1ccccc1C(=O)N[C@H]1CC[C@@H](Nc2ncc(C)c(N(C)C)n2)CC1 [compound 2910],3 (Class 3 The value of percent of control at 10^−7 M was more than 60% or the value of IC50 was more than 200 nM.)

row,SMILES,class
1,"Cc1cnc(N[C@H]2CC[C@@H](NC(=O)c3ccc(Br)cc3)CC2)nc1N(C)C [compound 2911, 4-bromo-N-(cis-4-{[4-(dimethylamino)-5-methylpyrimidin-2-yl]amino}cyclohexyl)benzamide]",1 (Class 1: The value of percent of control at 10^−7 M was less than 40% or the value of IC50 was less than 50 nM.)
2,"Cc1cnc(N[C@H]2CC[C@@H](NC(=O)c3ccc(C(F)(F)F)cc3)CC2)nc1N(C)C [compound 2912, N-(cis-4-{[4-(dimethylamino)-5-methylpyrimidin-2-yl]amino}cyclohexyl)-4-(trifluoromethyl)benzamide]",1 (Class 1: The value of percent of control at 10^−7 M was less than 40% or the value of IC50 was less than 50 nM.)
3,COc1ccc(C(=O)N[C@H]2CC[C@@H](Nc3ncc(C)c(N(C)C)n3)CC2)cc1 [compound 2913],3 (Class 3 The value of percent of control at 10^−7 M was more than 60% or the value of IC50 was more than 200 nM.)
4,Cc1cnc(N[C@H]2CC[C@@H](NC(=O)c3ccccc3Br)CC2)nc1N(C)C [compound 2914],3 (Class 3 The value of percent of control at 10^−7 M was more than 60% or the value of IC50 was more than 200 nM.)
5,Cc1cnc(N[C@H]2CC[C@@H](NC(=O)c3ccccc3Cl)CC2)nc1N(C)C [compound 2915],3 (Class 3 The value of percent of control at 10^−7 M was more than 60% or the value of IC50 was more than 200 nM.)
6,Cc1cnc(N[C@H]2CC[C@@H](NC(=O)c3ccccc3F)CC2)nc1N(C)C [compound 2916],3 (Class 3 The value of percent of control at 10^−7 M was more than 60% or the value of IC50 was more than 200 nM.)
7,Cc1ccccc1C(=O)N[C@H]1CC[C@@H](Nc2ncc(C)c(N(C)C)n2)CC1 [compound 2917],3 (Class 3 The value of percent of control at 10^−7 M was more than 60% or the value of IC50 was more than 200 nM.)
8,Cc1cnc(N[C@H]2CC[C@@H](NC(=O)c3ccccc3C(F)(F)F)CC2)nc1N(C)C [compound 2918],3 (Class 3 The value of percent of control at 10^−7 M was more than 60% or the value of IC50 was more than 200 nM.)
9,Cc1cnc(N[C@H]2CC[C@@H](NC(=O)c3ccc(F)c(C(F)(F)F)c3)CC2)nc1N(C)C [compound 2919],1 (Class 1: The value of percent of control at 10^−7 M was less than 40% or the value of IC50 was less than 50 nM.)
10,"Cc1cc(C(=O)N[C@H]2CC[C@@H](Nc3ncc(C)c(N(C)C)n3)CC2)ccc1Br [compound 2920, 4-bromo-N-(cis-4-{[4-(dimethylamino)-5-methylpyrimidin-2-yl]amino}cyclohexyl)-3-methylbenzamide]",1 (Class 1: The value of percent of control at 10^−7 M was less than 40% or the value of IC50 was less than 50 nM.)
11,"CCOc1ccc(C(=O)N[C@H]2CC[C@@H](Nc3ncc(C)c(N(C)C)n3)CC2)cc1 [compound 2921, N-(cis-4-{[4-(dimethylamino)-5-methylpyrimidin-2-yl]amino}cyclohexyl)-4-ethoxybenzamide]",2 (Class 2: The value of percent of control at 10^−7 M was from 40% to 60% or the value of IC′50 was from 50 nM to 200 nM.)
12,"Cc1cc(C(=O)N[C@H]2CC[C@@H](Nc3ncc(C)c(N(C)C)n3)CC2)ccc1F [compound 2923, N-(cis-4-{[4-(dimethylamino)-5-methylpyrimidin-2-yl]amino}cyclohexyl)-4-fluoro-3-methylbenzamide]",1 (Class 1: The value of percent of control at 10^−7 M was less than 40% or the value of IC50 was less than 50 nM.)
13,"Cc1ccc(C(=O)N[C@H]2CC[C@@H](Nc3ncc(C)c(N(C)C)n3)CC2)cc1F [compound 2924, N-(cis-4-{[4-(dimethylamino)-5-methylpyrimidin-2-yl]amino}cyclohexyl)-3-fluoro-4-methylbenzamide]",1 (Class 1: The value of percent of control at 10^−7 M was less than 40% or the value of IC50 was less than 50 nM.)
14,"CCc1cccc(C(=O)N[C@H]2CC[C@@H](Nc3ncc(C)c(N(C)C)n3)CC2)c1 [compound 2925, N-(cis-4-{[4-(dimethylamino)-5-methylpyrimidin-2-yl]amino}cyclohexyl)-3-ethylbenzamide]",1 (Class 1: The value of percent of control at 10^−7 M was less than 40% or the value of IC50 was less than 50 nM.)
15,"Cc1cnc(N[C@H]2CC[C@@H](NC(=O)c3ccc4c(c3)OC(F)(F)O4)CC2)nc1N(C)C [compound 2926, N-(cis-4-{[4-(dimethylamino)-5-methylpyrimidin-2-yl]amino}cyclohexyl)-2,2-difluoro-1,3-benzodioxole-5-carboxamide]",1 (Class 1: The value of percent of control at 10^−7 M was less than 40% or the value of IC50 was less than 50 nM.)
